The values that follow come from patent US20220087996A1, “Histone acetylase p300 inhibitor and use thereof” (HINOVA PHARMACEUTICALS INC., priority 2018, published 2022).

The first experiment concerns CWR22RV1 cells. Briefly: Inhibition of proliferation of CWR22RV1 cells (CCK-8). The class given is cell-based, human. The following applies: 6 days culture, read-out: IC50 against CWR22RV1 cells. The method, boiled down:
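CWR22RV1 cells (1500/well) were exposed to 9 three-fold compound concentrations (top final 10 μM, 0.1% DMSO) for 6 days. CCK-8 was added for 2.5 h, and absorbance was read at 450 nm. IC50 was fitted with a dose-response-inhibition equation.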
“1-(2′,4′-dioxo-3′-(2-oxo-2-((S)-2-phenylpyrrolidin-1-yl)ethyl)-2,3-dihydrospiro[cyclopropane-indene-1,5′-oxazolidine]-5-yl)-3-methylurea [Example 325]”: the IC50 was > 2000 nM.

Still in this experiment, the particulars now being: Homo sapiens, CWR22Rv1, 144 h, 6 days culture, read-out: IC50 against CWR22RV1 cells.
`CNC(=O)Nc1ccc2c(c1)CC[C@@]21OC(=O)N(CC(=O)N2C(c3ccc(F)cc3)CC[C@@H]2CO)C1=O` (mixture of isomers) [Example 360, 1-((R)-3′-(2-((R)-2-(4-fluorophenyl)-5-(hydroxymethyl)pyrrolidin-1-yl)-2-oxoethyl)-2′,4′-dioxo-2,3-dihydrospiro[indene-1,5′-oxazolidine]-5-yl)-3-methylurea]: the IC50 is > 2000 nM.
In the case of `CNC(=O)Nc1ccc2c(c1)CC[C@@]21OC(=O)N(CC(=O)N2CCC[C@@H]2c2ccccc2)C1=O` [Example 306, 1-((R)-2′,4′-dioxo-3′-(2-oxo-2-((R)-2-phenylpyrrolidin-1-yl)ethyl)-2,3-dihydrospiro[indene-1,5′-oxazolidine]-5-yl)-3-methylurea], the IC50 is > 2000 nM.
`CNC(=O)Nc1ccc2c(c1)CC[C@]21OC(=O)N(CC(=O)N2CCCC[C@@H]2c2ccccc2)C1=O` [Example 1]: the IC50 was > 2000 nM.
On the same count and under the same terms, to `CNC(=O)Nc1ccc2c(c1)CC[C@@]21OC(=O)N(CC(=O)N2CCCC[C@H]2c2ccccc2)C1=O` [Example 5, 1-((R)-2′,4′-dioxo-3′-(2-oxo-2-((S)-2-phenylpiperidin-1-yl)ethyl)-2,3-dihydrospiro[indene-1,5-oxazolidine]-5-yl)-3-methylurea] belongs > 2000 nM; to `C=C[C@H]1CC[C@@H](c2ccc(F)cc2)N1C(=O)CN1C(=O)O[C@@]2(CCc3cc(NC(=O)NC)ccc32)C1=O` [Example 367, 1-((R)-3′-(2-((2S,5R)-2-(4-fluorophenyl)-5-vinylpyrrolidin-1-yl)-2-oxoethyl)-2′,4′-dioxo-2,3-dihydrospiro[indene-1,5′-oxazolidine]-5-yl)-3-methylurea], 500 to 2000 nM.
Consider `CNC(=O)Nc1ccc2c(c1)CCC21OC(=O)N(CC(=O)N2[C@@H](CO)CC[C@H]2c2ccc(F)cc2)C1=O` (stereo partly drawn) [Example 361, 1-(3′-(2-((2S,5R)-2-(4-fluorophenyl)-5-(hydroxymethyl)pyrrolidin-1-yl)-2-oxoethyl)-2′,4′-dioxo-2,3-dihydrospiro[indene-1,5′-oxazolidine]-5-yl)-3-methylurea], for which the IC50 lay within 500 to 2000 nM.
With `CNC(=O)Nc1ccc2c(c1)CC[C@@]21OC(=O)N(CC(=O)N2[C@H](CN3CCC4(CC3)CC4(F)F)CC[C@@H]2C)C1=O` [Example 379, 1-((R)-3′-(2-((2S,5S)-2-((1,1-difluoro-6-aza-spiro[2.5]octan-6-yl)methyl)-5-methylpyrrolidin-1-yl)-2-oxoethyl)-2′,4′-dioxo-2,3-dihydrospiro[indene-1,5′-oxazolidine]-5-yl)-3-methylurea], the IC50 was > 2000 nM.
The same measure, in the same setting: next, `CNC(=O)Nc1ccc2c(c1)CC[C@@]21OC(=O)N(CC(=O)N2C(C(C)(C)C)OC[C@@H]2c2ccccc2)C1=O` (stereo partly shown) [Example 108]: > 2000 nM; `CNC(=O)Nc1ccc2c(c1)CC[C@@]21OC(=O)N(CC(=O)N2C(C)CCC2c2ccc(F)cc2)C1=O` (stereo partly drawn) [Example 348, 1-((1R)-3′-(2-(2-(4-fluorophenyl)-5-methylpyrrolidin-1-yl)-2-oxoethyl)-2′,4′-dioxo-2,3-dihydrospiro[indene-1,5′-oxazolidine]-5-yl)-3-methylurea]: ≤ 500 nM; `CNC(=O)Nc1ccc2c(c1)CC[C@]21OC(=O)N(Cc2nnc(-c3ccccc3)o2)C1=O` [Example 317, (S)-1-(2′,4′-dioxo-3′-((5-phenyl-1,3,4-oxadiazol-2-yl)methyl)-2,3-dihydrospiro[indene-1,5′-oxazolidine]-5-yl)-3-methylurea]: > 2000 nM.
`CNC(=O)Nc1ccc2c(c1)CC[C@@]21OC(=O)N(CC(=O)N2Cc3cccnc3C2)C1=O` [Example 304, (R)-1-(2′,4′-dioxo-3′-(2-oxo-2-(5H-pyrrolo[3,4-b]pyridin-6(7H)-yl)ethyl)-2,3-dihydrospiro[indene-1,5′-oxazolidine]-5-yl)-3-methylurea]: the IC50 was > 2000 nM.

The experiment is the same for the next values; noted with them: Homo sapiens, CWR22Rv1, 144 h, 6 days culture, read-out: IC50 against CWR22RV1 cells (text).
Take `CNC(=O)Nc1ccc2c(c1)CC[C@@]21OC(=O)N(CC(=O)N2C(C)CCC2c2ccc(F)cc2)C1=O` (stereo partly drawn) [Example 348, 1-((1R)-3′-(2-(2-(4-fluorophenyl)-5-methylpyrrolidin-1-yl)-2-oxoethyl)-2′,4′-dioxo-2,3-dihydrospiro[indene-1,5′-oxazolidine]-5-yl)-3-methylurea]: the IC50 is ≤ 500 nM.

Broadly, the IC50 is the concentration needed to halve the response being measured.
